Reference: PubChem BioAssay AID284 (DTP/NCI, 2004)
Values joined by “and” are separate entries in the source; they are usually repeats but may differ in a detail not shown here. Equal values may be shown once. Toxic doses and inconclusive results are not listed.

System: BDF1 mice, L1210/MTX-resistant leukemia ip, survival T/C
Experiment: NCI In Vivo Anticancer Drug Screen. Data for tumor model L1210 Leukemia resistant to Methotrexate; NSC 740 (intraperitoneal) in B6D2F1 (BDF1) mice
Settings: endpoint: mean survival time, higher = longer survival
Protocol: The antitumor activity of compounds was measured in mice bearing transplantable tumors. Survival or tumor size were measured and the results are expressed as the measurement made in the treated group (T) divided by the measurement made in the vehicle treated control group (C). The tumor model used in this assay is L1210 Leukemia resistant to Methotrexate; NSC 740 (intraperitoneal) in B6D2F1 (BDF1) mice

[1] = dose: 62.5 mg/kg/injection, schedule: Q01DX010 (ip), vehicle: saline
[2] = dose: 125.0 mg/kg/injection, schedule: Q01DX010 (ip), vehicle: saline
[3] = dose: 250.0 mg/kg/injection, schedule: Q01DX010 (ip), vehicle: saline
[4] = dose: 500.0 mg/kg/injection, schedule: Q01DX010 (ip), vehicle: saline

In the case of OCC1OC(n2cnc3c(Cl)ncnc32)C(O)C1O (stereo not given), the T/C [1] is reported as 87 % of control and 90 % of control, the T/C [2] is reported as 95 % of control and 98 % of control and the T/C [3] is reported as 95 % of control and 100 % of control. For the same compound, the T/C [4] was 98 % of control.

Nc1nc(=S)c2ncn(C3OC(CO)C(O)C3O)c2[nH]1 (stereo not given) was tested, and the T/C (dose: 0.22 mg/kg/injection, schedule: Q01DX Z (ip), vehicle: carboxymethylcellulose (CMC)) was 88 % of control, the T/C (dose: 0.45 mg/kg/injection, schedule: Q01DX Z (ip), vehicle: carboxymethylcellulose (CMC)) was 88 % of control and the T/C (dose: 1.8 mg/kg/injection, schedule: Q01DX Z (ip), vehicle: carboxymethylcellulose (CMC)) was 102 % of control.

With O=C1C(NC(=O)C2CCCCC2)=C(N2CC2)C(=O)C(NC(=O)C2CCCCC2)=C1N1CC1 the T/C (dose: 11.0 mg/kg/injection, schedule: Q01DX010 (ip), vehicle: saline) was 89 % of control, the T/C (dose: 22.0 mg/kg/injection, schedule: Q01DX010 (ip), vehicle: saline) was 101 % of control and the T/C (dose: 25.0 mg/kg/injection, schedule: Q01DX010 (ip), vehicle: saline) was 112 % of control. For the same compound, the T/C (dose: 44.0 mg/kg/injection, schedule: Q01DX010 (ip), vehicle: saline) was 98 % of control, the T/C (dose: 50.0 mg/kg/injection, schedule: Q01DX010 (ip), vehicle: saline) was 108 % of control and the T/C (dose: 88.0 mg/kg/injection, schedule: Q01DX010 (ip), vehicle: saline) was 95 % of control. The T/C (dose: 100.0 mg/kg/injection, schedule: Q01DX010 (ip), vehicle: saline) was 109 % of control and the T/C (dose: 200.0 mg/kg/injection, schedule: Q01DX010 (ip), vehicle: saline) was 109 % of control.

With O=C(CCBr)N1CCN(C(=O)CCBr)CC1 the T/C (dose: 1.6 mg/kg/injection, schedule: Q01DX Z (ip), vehicle: methylcellulose (MC)) was 86 % of control, the T/C (dose: 3.2 mg/kg/injection, schedule: Q01DX Z (ip), vehicle: methylcellulose (MC)) was 90 % of control and the T/C (dose: 6.3 mg/kg/injection, schedule: Q01DX Z (ip), vehicle: methylcellulose (MC)) was 100 % of control.

O=CCC(O)C(O)C(O)CO (stereo not given) was tested, and the T/C (dose: 3.75 mg/kg/injection, schedule: Q01DX Z (ip), vehicle: saline) was 113 % of control, the T/C (dose: 5.0 mg/kg/injection, schedule: Q01DX Z (ip), vehicle: saline) was 118 % of control and the T/C (dose: 7.5 mg/kg/injection, schedule: Q01DX Z (ip), vehicle: saline) was 114 % of control and 103 % of control. The T/C (dose: 10.0 mg/kg/injection, schedule: Q01DX Z (ip), vehicle: saline) was 118 % of control, the T/C (dose: 15.0 mg/kg/injection, schedule: Q01DX Z (ip), vehicle: saline) was 114 % of control and the T/C (dose: 250.0 mg/kg/injection, schedule: Q01DX Z (ip), vehicle: saline) was 108 % of control. For the same compound, the T/C (dose: 500.0 mg/kg/injection, schedule: Q01DX Z (ip), vehicle: saline) was 104 % of control, the T/C (dose: 750.0 mg/kg/injection, schedule: Q01DX Z (ip), vehicle: saline) was 99 % of control and the T/C (dose: 1000.0 mg/kg/injection, schedule: Q01DX Z (ip), vehicle: saline) was 91 % of control.

With C[n+]1c2ccccc2nc2c(N)cc(N)cc21 the T/C (dose: 3.2 mg/kg/injection, schedule: Q01DX Z (ip), vehicle: other) was 101 % of control and 110 % of control, the T/C (dose: 6.3 mg/kg/injection, schedule: Q01DX Z (ip), vehicle: other) was 116 % of control and 107 % of control and the T/C (dose: 8.0 mg/kg/injection, schedule: Q01DX010 (ip), vehicle: saline) was 122 % of control. For the same compound, the T/C (dose: 12.0 mg/kg/injection, schedule: Q01DX010 (ip), vehicle: saline) was 114 % of control, the T/C (dose: 12.5 mg/kg/injection, schedule: Q01DX Z (ip), vehicle: other) was 103 % of control and 105 % of control and the T/C (dose: 18.0 mg/kg/injection, schedule: Q01DX010 (ip), vehicle: saline) was 96 % of control.

O=c1[nH]c(=O)n(C2CC(O)C(CO)O2)cc1F (stereo not given) was tested, and the T/C (dose: 40.0 mg/kg/injection, schedule: Q01DX Z (ip), vehicle: other) was 118 % of control, the T/C (dose: 80.0 mg/kg/injection, schedule: Q01DX Z (ip), vehicle: other) was 98 % of control and the T/C (dose: 160.0 mg/kg/injection, schedule: Q01DX Z (ip), vehicle: other) was 102 % of control.

For C1CN1c1nc(N2CC2)nc(N2CC2)n1, the T/C (dose: 2.0 mg/kg/injection, schedule: Q01DX Z (ip), vehicle: saline) was 93 % of control, the T/C (dose: 4.0 mg/kg/injection, schedule: Q01DX Z (ip), vehicle: saline) was 93 % of control and the T/C (dose: 32.0 micrograms/kg/injection, schedule: Q01DX Z (ip), vehicle: saline) was 90 % of control and 100 % of control. For the same compound, the T/C (dose: 63.0 micrograms/kg/injection, schedule: Q01DX Z (ip), vehicle: saline) was 98 % of control, the T/C (dose: 125.0 micrograms/kg/injection, schedule: Q01DX Z (ip), vehicle: saline) was 87 % of control and the T/C (dose: 250.0 micrograms/kg/injection, schedule: Q01DX Z (ip), vehicle: saline) was 98 % of control.

In the case of S=c1nc[nH]c2nc[nH]c12, the T/C (dose: 1.2 mg/kg/injection, schedule: Q01DX Z (ip), vehicle: carboxymethylcellulose (CMC)) is reported as 118 % of control, the T/C (dose: 2.4 mg/kg/injection, schedule: Q01DX Z (ip), vehicle: carboxymethylcellulose (CMC)) is reported as 91 % of control and the T/C (dose: 3.0 mg/kg/injection, schedule: Q01DX Z (ip), vehicle: carboxymethylcellulose (CMC)) is reported as 95 % of control. The T/C (dose: 5.0 mg/kg/injection, schedule: Q01DX010 (ip), vehicle: alkali diluted with saline) was 100 % of control, the T/C (dose: 5.0 mg/kg/injection, schedule: Q01DX Z (ip), vehicle: alkali diluted with saline) was 120 % of control and 91 % of control and 102 % of control and the T/C (dose: 6.0 mg/kg/injection, schedule: Q01DX Z (ip), vehicle: carboxymethylcellulose (CMC)) was 111 % of control. For the same compound, the T/C (dose: 9.0 mg/kg/injection, schedule: Q01DX Z (ip), vehicle: carboxymethylcellulose (CMC)) was 95 % of control, the T/C (dose: 10.0 mg/kg/injection, schedule: Q01DX010 (ip), vehicle: alkali diluted with saline) was 99 % of control and the T/C (dose: 10.0 mg/kg/injection, schedule: Q01DX Z (ip), vehicle: alkali diluted with saline) was 94 % of control and 110 % of control. For the same compound, the T/C (dose: 12.0 mg/kg/injection, schedule: Q01DX Z (ip), vehicle: carboxymethylcellulose (CMC)) was 98 % of control, the T/C (dose: 20.0 mg/kg/injection, schedule: Q01DX010 (ip), vehicle: alkali diluted with saline) was 101 % of control and the T/C (dose: 20.0 mg/kg/injection, schedule: Q01DX Z (ip), vehicle: alkali diluted with saline) was 117 % of control and 91 % of control and 102 % of control. For the same compound, the T/C (dose: 25.0 mg/kg/injection, schedule: Q01DX Z (ip), vehicle: other) was 93 % of control and 103 % of control, the T/C (dose: 36.0 mg/kg/injection, schedule: Q01DX Z (ip), vehicle: carboxymethylcellulose (CMC)) was 102 % of control and the T/C (dose: 40.0 mg/kg/injection, schedule: Q01DX010 (ip), vehicle: alkali diluted with saline) was 104 % of control. For the same compound, the T/C (dose: 80.0 mg/kg/injection, schedule: Q01DX010 (ip), vehicle: alkali diluted with saline) was 95 % of control and the T/C (dose: 100.0 mg/kg/injection, schedule: Q01DX Z (ip), vehicle: other) was 123 % of control and 98 % of control.

For CCCSc1ncnc2nc[nH]c12, the T/C (dose: 0.5 mg/kg/injection, schedule: Q01DX Z (ip), vehicle: other) was 103 % of control, the T/C (dose: 2.0 mg/kg/injection, schedule: Q01DX Z (ip), vehicle: other) was 93 % of control and the T/C (dose: 4.0 mg/kg/injection, schedule: Q01DX Z (ip), vehicle: other) was 93 % of control. The T/C (dose: 31.3 mg/kg/injection, schedule: Q01DX010 (ip), vehicle: saline) was 104 % of control, the T/C [1] was 95 % of control and the T/C (dose: 87.5 mg/kg/injection, schedule: Q01DX Z (ip), vehicle: other) was 100 % of control. The T/C [2] was 90 % of control, the T/C (dose: 175.0 mg/kg/injection, schedule: Q01DX Z (ip), vehicle: other) was 88 % of control and the T/C [3] was 88 % of control.

With c1ccc(CCSc2ncnc3nc[nH]c23)cc1 the T/C [1] was 93 % of control, the T/C [2] was 91 % of control and the T/C [3] was 100 % of control. The T/C [4] was 100 % of control.

O[C@H](CN1CC1)[C@@H](O)CN1CC1 was tested, and the T/C (dose: 0.01 mg/kg/injection, schedule: Q01DX Z (ip), vehicle: saline) was 99 % of control, the T/C (dose: 0.02 mg/kg/injection, schedule: Q01DX Z (ip), vehicle: saline) was 105 % of control and the T/C (dose: 0.37 mg/kg/injection, schedule: Q01DX Z (ip), vehicle: saline) was 151 % of control.
